Data taken from patent publication US5001058A (Bristol-Myers Company, priority 1989, dated 1991).
Values after ≈ are worked out from the molar mass of the structure shown. Like-named read-outs stand apart in the source and are kept apart here.

Assays:
[1] = system: Preopionibacterium acnes A21933; assay: Antimicrobial activity, two-fold serial dilution in agar media; format: cell-based; conditions: Gifu anaerobic medium agar
[2] = system: Staphylococcus aureus Smith; assay: as above; format: cell-based; conditions: Nutrient agar
[3] = system: Yeast and fungi; assay: Antimicrobial activity, two-fold serial dilution in agar media (summary); format: cell-based; conditions: in words
[4] = system: Moser (human colorectal carcinoma) cells; assay: In vitro cytotoxicity, neutral red staining; format: cell-based
[5] = Solubility; format: physicochemical
[6] = system: Streptococcus faecalis A9612; assay: microbe, parasite or virus in culture; conditions: Enterococcus faecalis
[7] = system: Bacillus subtilis PCI 219; assay: Antimicrobial activity, two-fold serial dilution in agar media; format: cell-based; conditions: PCI219, Nutrient agar
[8] = system: anaerobic bacteria; assay: Antimicrobial activity, two-fold serial dilution in agar media (summary); format: cell-based; conditions: in words
[9] = system: gram-positive bacteria; assay: as above; format: cell-based; conditions: in words
[10] = system: Bacteroides fragilis A22035; assay: microbe, parasite or virus in culture
[11] = system: Klebsiella pneumoniae D11; assay: microbe, parasite or virus in culture
[12] = system: murine and human tumor cells; assay: In vitro cytotoxicity against tumor cells (summary); format: cell-based
[13] = system: B16-F10 (murine melanoma) cells; assay: In vitro cytotoxicity, neutral red staining; format: cell-based; conditions: Mus musculus; B16-F10, 72 hours, 37° C.
[14] = system: DNA synthesis in L1210 leukemia cells; assay: Inhibition of DNA synthesis in L1210 leukemia cells (labelled precursor incorporation); format: cell-based, murine; conditions: Mus musculus, 3H-thymidine, 15 min with test material, then 60 min
[15] = system: Pseudomonas aeruginosa A9930; assay: microbe, parasite or virus in culture
[16] = system: Clostridium perfringens A9635; assay: microbe, parasite or virus in culture
[17] = system: Cryptococcus neoformans D49; assay: microbe, parasite or virus in culture
[18] = system: macromolecule (DNA, RNA and protein) synthesis in L1210 murine leukemia cells; assay: Inhibitory effects on macromolecule (DNA, RNA and protein) synthesis (summary); format: cell-based; conditions: in words
[19] = system: Candida albicans IAM 4888; assay: microbe, parasite or virus in culture; conditions: IAM4888
[20] = system: Aspergillus fumigatus IAM 2530; assay: microbe, parasite or virus in culture; conditions: IAM2530
[21] = system: Staphylococcus aureus A20234; assay: Antimicrobial activity, two-fold serial dilution in agar media; format: cell-based; conditions: Nutrient agar
[22] = system: Proteus vulgalis A9436; assay: microbe, parasite or virus in culture
[23] = system: Protein synthesis in L1210 leukemia cells; assay: Inhibition of protein synthesis in L1210 leukemia cells (labelled precursor incorporation); format: cell-based, murine; conditions: Mus musculus, 3H-leucine, 15 min with test material, then 60 min
[24] = system: gram-negative bacteria; assay: Antimicrobial activity, two-fold serial dilution in agar media (summary); format: cell-based; conditions: in words
[25] = system: Clostridium difficile A21675; assay: microbe, parasite or virus in culture; conditions: Clostridioides difficile
[26] = system: Micrococcus luteus PCI 1001; assay: Antimicrobial activity, two-fold serial dilution in agar media; format: cell-based; conditions: PCI1001, Nutrient agar
[27] = system: HCT-116 (human colon carcinoma) cells; assay: In vitro cytotoxicity, neutral red staining; format: cell-based; conditions: HCT-116, 72 hours, 37° C.
[28] = system: Streptococcus pyogenes A20201; assay: Antimicrobial activity, two-fold serial dilution in agar media; format: cell-based; conditions: Nutrient agar
[29] = system: P388 leukemia
[30] = system: RNA synthesis in L1210 leukemia cells; assay: Inhibition of RNA synthesis in L1210 leukemia cells (labelled precursor incorporation); format: cell-based, murine; conditions: Mus musculus, 14C-uridine, 15 min with test material, then 60 min
[31] = system: Proteus mirabilis A9554; assay: microbe, parasite or virus in culture
[32] = system: Staphylococcus epidermidis D153; assay: Antimicrobial activity, two-fold serial dilution in agar media; format: cell-based; conditions: Nutrient agar
[33] = system: Staphylococcus aureus 209P; assay: as above; format: cell-based; conditions: Nutrient agar
[34] = system: Escherichia coli NIHJ; assay: microbe, parasite or virus in culture
[35] = system: Trichophyton mentagrophytes D155; assay: microbe, parasite or virus in culture
[36] = in words, literature; cited from earlier work

Cc1cc2c(c3oc(C(O)(CO)C4CO4)cc(=O)c13)C(=O)c1c(O)cccc1C2=O (stereo not shown) [BU-3839T]
MIC [1]: 0.8 µg/mL (≈ 1.96 µM) | MIC [2]: 0.05 µg/mL (≈ 0.122 µM) | Susceptibility of yeast and fungi [3]: not susceptible | IC50 ([4]; Moser, 72 hours, 37° C., read-out: IC50): 0.0046 µg/mL (≈ 0.0113 µM) | Solubility ([5]; N,N-dimethylformamide): soluble | Solubility ([5]; alkaline water): slightly soluble | Solubility ([5]; chloroform): slightly soluble | Solubility ([5]; dimethyl sulfoxide): soluble | Solubility ([5]; methylene chloride): slightly soluble | Solubility ([5]; other organic solvents): almost insoluble | Solubility ([5]; water): almost insoluble | MIC [6]: 0.4 µg/mL (≈ 0.98 µM) | MIC [7]: 0.05 µg/mL (≈ 0.122 µM) | Activity against anaerobic bacteria [8]: relatively weak activity | Inhibitory activity against gram-positive bacteria [9]: remarkable inhibitory activity | MIC [10]: 0.1 µg/mL (≈ 0.245 µM) | MIC [11]: 6.3 µg/mL (≈ 15.4 µM) | Cytotoxicity superior to mitomycin C in terms of IC50 value ([12]; approximately, ratio to mitomycin C): 300-600 times | Cytotoxicity against tumor cells ([12]; in words): quite potent | IC50 [13]: 0.9 ng/mL (≈ 0.0022 µM) | IC50 [14]: 0.013 µg/mL (≈ 0.0318 µM) | MIC [15]: > 50 µg/mL | MIC [16]: 0.4 µg/mL (≈ 0.98 µM) | MIC [17]: > 50 µg/mL | Inhibition of macromolecule synthesis [18]: inhibited DNA, RNA and protein synthesis non-specifically | MIC [19]: > 50 µg/mL | MIC [20]: > 50 µg/mL | MIC [21]: 0.05 µg/mL (≈ 0.122 µM) | MIC [22]: 6.3 µg/mL (≈ 15.4 µM) | IC50 [23]: 0.039 µg/mL (≈ 0.0955 µM) | Activity against gram-negative bacteria [24]: relatively weak activity | MIC [25]: 0.4 µg/mL (≈ 0.98 µM) | MIC [26]: 0.025 µg/mL (≈ 0.0612 µM) | IC50 [27]: 2.6 ng/mL (≈ 0.00637 µM) | MIC [28]: 0.1 µg/mL (≈ 0.245 µM) | Body weight change on day 4 ([29]; 0.008 mg/kg/day, QD × 3, ip): +1.0 g | MST (median survival time) ([29]; 0.008 mg/kg/day, QD × 3, ip): 11.0 days | T/C ([29]; 0.008 mg/kg/day, QD × 3, ip, T/C ≥ […] significant): 110% | MST (median survival time) ([29]; 0.5 mg/kg/day, QD × 3, ip): 14.5 days | MST (median survival time) ([29]; 1 mg/kg/day, QD × 3, ip): 7.0 days | maximum T/C value ([29]; P388 leukemia, ip, QD×3): 145% | Chemotherapeutic activity against P388 leukemia ([29]; in words): relatively broad and moderate chemotherapeutic activity | IC50 [30]: 0.029 µg/mL (≈ 0.071 µM) | MIC [31]: > 50 µg/mL | MIC [32]: 0.1 µg/mL (≈ 0.245 µM) | MIC [33]: 0.05 µg/mL (≈ 0.122 µM) | MIC [34]: > 50 µg/mL | MIC [35]: > 50 µg/mL

CO[C@@]12[C@H](COC(N)=O)C3=C(C(=O)C(C)=C(N)C3=O)N1C[C@@H]1N[C@@H]12 [Mitomycin C, reference compound]
IC50 ([4]; 72 h): 1.2 µg/mL (≈ 3.59 µM) | Inhibition of macromolecule synthesis [18]: specific inhibition of DNA synthesis

Cc1cc2c(c3oc(C4(C5CO5)CO4)cc(=O)c13)C(=O)c1c(O)cccc1C2=O (stereo not shown) [SF-2330]
Antibacterial activity [36]: antibacterial activity

CCC(C)c1cc(=O)c2c(CC(=O)O)cc3c(c2o1)C(=O)c1c(O)cccc1C3=O (stereo not shown) [SS-43405D]
Antibacterial activity [36]: antibacterial activity
